Assay results reported in patent US20230310432A1 (JULIUS-MAXIMILIANS-UNIVERSITÄT WÜRZBURG, priority 2017, published 2023).
Read-outs that look alike come from different tables or passages of the source.

What was measured:
CD19 CAR/4-1BB-T cells = assay: Frequency of human T cells in bone marrow and peripheral blood by flow cytometry (Example 6); type: in vivo, NSG mice; details: CAR/treated
Procedure: (§1) The Institutional Animal Care and Use Committee of UKW approved all mouse experiments. NOD.Cg-Prkdc^scidIl2rg^tm1wjl/SzJ (NSG) mice (female, 6-8 week old) were purchased from Charles River (Sulzfeld, Germany). Mice were inoculated with 1×10^6 Raji/ffluc_GFP tumor cells via tail vein injection (i.v.). Mice were treated with 5×10^6 CAR-modified or control untransduced T-cells (CD4:CD8 ratio=1:1) via tail vein injection (i.v.). […] Tumor burden and distribution was analyzed by serial bioluminescence imaging on an IVIS Lumina imager (Perkin Elmer, Baesweiler, Germany): mice received i.p. injections of 0.3 mg/g luciferin and images were acquired 10 minutes after luciferin injection in small binning mode at an acquisition time of 1 s to 1 min to obtain unsaturated images. Data were analyzed using LivingImage Software (Caliper) and the average radiance (or photon flux) analyzed in regions of interest that encompassed the entire body of each individual mouse. Mice were sacrificed at the end of the experiment and human T cells in bone marrow, peripheral blood and spleen were analyzed by flow cytometry. The presence of (human) cytokines in serum was measured using multiplex cytokine analysis.
In brief, cohorts of n≥3 mice were inoculated with 1×10^6 firefly-luciferase_GFP-transduced Raji tumor cells on day 0, and on day 7 mice were treated with either CAR-transduced or control untransduced T cells. T-cell products consisted of equal proportions of CD4^+ and CD8^+ T cells (1:1 ratio), the total dose was 5×10^6 T cells.
The inventors analyzed the presence of human T cells in bone marrow (BM), spleen (SP) and peripheral blood (PB) of mice, at d1 and d3 after T cell injection using flow cytometry. Live human T cells were identified as 7AAD^−, […] and CD4^+.

[1] = system: CD19 CAR/4-1BB-T cells; Raji tumor cells; assay: Tumor burden by bioluminescence imaging, intermittent dasatinib (Example 11); type: in vivo, NSG mice; details: day 8; CAR-T cells and intermittent dasatinib 5 mg/kg; 1.9e10 without dasatinib
Procedure: as §1
In brief, cohorts of 1-12 mice were inoculated with 1×10^6 firefly-luciferase_GFP-transduced Raji tumor cells on day 0. […]

[2] = system: CD4+ T cells expressing a SLAMF7 CAR with CD28 costimulatory domain; assay: Cytokine ELISA, co-culture with K562/SLAMF7; type: cell-based, human; details: dasatinib 20 nM; 20 h
Procedure: (§2) Cytokine secretion: 5×10^4 T-cells were plated in duplicate or triplicate wells with target cells at an E:T ratio of 4:1 (K562/ROR1, K562/CD19, RCH-ACV), and IFN-γ and IL-2 were measured by ELISA, or cytokine panels were measured by multiplex cytokine immunoassay (Luminex) in supernatant removed after 20-h incubation. Specific cytokine production was calculated by subtracting the amount of cytokines released by unstimulated CAR-T cells from the amount of cytokines released after antigen-specific stimulation. The remaining cytokine secretion in % as shown in the diagrams is normalized to CAR-T cells in the absence of dasatinib-treatment (100%).
(§3) The inventors prepared SLAMF7-specific CD8^+ and CD4^+ CAR-T cell lines from n=2 healthy donors. In each of the T-cell lines, the inventors enriched CAR-expressing T cells to >90% purity using the EGFRt-transduction marker. […] CAR-T cells were co-cultured with K562 that the inventors had transduced with SLAMF7. Dasatinib was added to the assay medium at the beginning of the co-culture assay. ELISA was performed to detect IFN-γ and IL-2 in supernatant removed from the co-culture.

[3] = system: CD8+ T cells expressing a SLAMF7 CAR with 4-1BB costimulation; assay: Cytokine ELISA, co-culture with K562/SLAMF7; type: cell-based, human; details: 20 h
Procedure: as §2, §3

[4] = system: CD8+ T cells expressing a SLAMF7 CAR with CD28 costimulatory domain; assay: Cytokine ELISA, co-culture with K562/SLAMF7; type: cell-based, human; details: 20 h
Procedure: as §2, §3

[5] = system: CD4+ T cells expressing a SLAMF7 CAR with 4-1BB costimulatory domain; assay: Cytokine ELISA, co-culture with K562/SLAMF7; type: cell-based, human; details: dasatinib ≥20 nM; 20 h
Procedure: as §2, §3

[6] = system: activated CD19 CAR/4-1BB-T cells; type: in vivo, NSG mice
ZAP70 at tyrosine 319 = assay: Quantitative Western blot of phosphorylation in CD8+ CD19 CAR/4-1BB T cells; type: cell-based, human; details: 100 nM dasatinib; co-culture with RCH-ACV
[7] = system: NFAT/GFP reporter in CD8+ CD19 CAR/4-1BB T cells; assay: NFAT/GFP reporter assay during sequential stimulation; type: cell-based, human; details: day 1

Cc1nc(Nc2ncc(C(=O)Nc3c(C)cccc3Cl)s2)cc(N2CCN(CCO)CC2)n1 [dasatinib]
frequency of human T cells, bone marrow (CD19 CAR/4-1BB-T cells; day 1, 0.099% CAR/untreated): 0.087% | frequency of human T cells, peripheral blood (CD19 CAR/4-1BB-T cells; day 1, […] CAR/untreated): 0.19% | frequency of CAR-T cells, bone marrow (CD19 CAR/4-1BB-T cells; day +3, 0.56% CAR/untreated): 0.23% | frequency of CAR-T cells, peripheral blood (CD19 CAR/4-1BB-T cells; day +3, 0.61% CAR/untreated): 0.36% | average bioluminescence signal [1]: 5.6e9 p/s/cm*2/sr | residual IFN-γ [2]: less than 1.2% | residual specific IFN-γ production ([3]; dasatinib 20 nM): less than 15% | residual specific IFN-γ production ([3]; dasatinib ≥40 nM): less than 0.8% | residual specific IFN-γ production ([4]; dasatinib ≥20 nM): less than 4% | residual specific IFN-γ production ([4]; dasatinib ≥40 nM): less than 0.2% | residual IFN-γ [5]: less than 0.5% | serum level of IFN-γ ([6]; day 12, CAR(ON/OFF/ON), 157 pg/ml in CAR(ON)): 24 pg/mL | serum level of IFN-γ ([6]; day 14, dasatinib discontinued): 38 pg/mL | phosphorylation compared to CAR-T cells co-cultured in the absence of dasatinib (ZAP70 at tyrosine 319): 11.61% | GFP MFI ([7]; dasatinib added one hour after assay set up, 1949 in untreated stimulated CAR-T cells): 734 | GFP MFI ([7]; dasatinib present from the beginning): 137
